The values that follow come from patent US11851413B1, “1,3-benzothiazol-2-yl-N'-[(naphthalene-1-carbonyl)oxy]ethanimidamide as an antitumor and antimicrobial compound” (KING FAISAL UNIVERSITY, priority 2023, dated 2023).

Data set [1] relates to human osteosarcoma cells (MG-63). Briefly: Cytotoxicity by SRB assay, MG-63 cells. Format: cell-based. To be noted: 0.01 μM to 100 μM, 72 h. The method, then:
(§1) The human prostate cancer cells (PC3) and human osteosarcoma cells (MG-63) were obtained from Nawah Scientific Inc. (Mokatam, Cairo, Egypt) and cultured in DMEM (Dulbecco's modified eagle's medium), Gibco, USA, supplemented with fetal bovine serum (FBS) at a concentration of 10% and 100 U/mL of penicillin and streptomycin (PS). The Cells were incubated at 37° C. in a humidified environment that contained 5% CO2. Cells were seeded in 96-well plates as aliquots of 100 μL cell suspension and incubated in a complete media for 24 h. afterward, cells were treated with N′-(1-naphthoyloxy)-2-(benzo[d]thiazol-2-yl)acetimidamide at diverse concentrations ranging from 0.01 μM to 100 μM for 72 h. Then, cells were fixed at 4° C. for one hour with 150 μL of 10% trichloroacetic acid (TCA). After washing the cells five times with distilled water, 70 μL of sulforhodamine (SRB) solution (0.4% w/v) was added and incubated for 10 min at room temperature in a dark place. […] Then, 150 μL of Tris pH 10.5 (10 mM) was added, and the absorbance was measured at 540 nm using a BMG LABTECH®-FLUOstar Omega microplate reader (Ortenberg, Germany). Half maximal inhibitory concentrations (IC50) values were calculated for each experiment using GraphPad Prism 6 software. […] The inhibition was calculated using the following equation: Inhibition%=100−Average Viability
For orientation: Sulforhodamine B stains cellular protein and so reports cell mass.

Data set [2] concerns human prostate cancer cells (PC3). Briefly: Cytotoxicity by SRB assay, PC3 cells. To be noted: 0.01 μM to 100 μM, 72 h. The data set is classed as cell-based. The method, then:
as §1

Take `N/C(Cc1nc2ccccc2s1)=N\OC(=O)c1cccc2ccccc12` [1,3-benzothiazol-2-yl-N′-[(naphthalene-1-carbonyl)oxy]ethanimidamide]: the melting point (as a rule, the temperature of the solid-liquid transition) lay within 191 to 193 °C. Besides, the “antiproliferative activity against osteosarcoma (MG-63) cells” value in data set [1] was “excellent antiproliferative activities”. Moreover, in data set [2], the “antiproliferative activity against prostate cancer cells (PC3)” value was “excellent antiproliferative activities”.
